Source: the NIST ThermoML archive (doi:10.1016/j.jct.2010.01.009)
“And” between values parts separate entries of the source, which are not always exact repeats. Identical values can stand only once. Numbers after ± are expanded uncertainties.

Conditions: Crystal, Calculated from knudsen effusion weight loss

With `Cc1ccc(-n2cccc2)cc1` [1-(4-methylphenyl)-1H-pyrrole] the “vapor or sublimation pressure” value (283.11 K) was 0.00014 ± 7e-06 kPa and 0.000137 ± 7e-06 kPa, the “vapor or sublimation pressure” value (285.13 K) was 0.000168 ± 8e-06 kPa and 0.000169 ± 8e-06 kPa and 0.000174 ± 9e-06 kPa and the “vapor or sublimation pressure” value (287.12 K) was 0.00023 ± 1.2e-05 kPa and 0.000224 ± 1.1e-05 kPa and 0.00022 ± 1.1e-05 kPa. The “vapor or sublimation pressure” value (289.13 K) was 0.000278 ± 1.4e-05 kPa and 0.000282 ± 1.4e-05 kPa and 0.000286 ± 1.4e-05 kPa, the “vapor or sublimation pressure” value (291.14 K) was 0.000362 ± 1.8e-05 kPa and 0.000355 ± 1.8e-05 kPa and the “vapor or sublimation pressure” value (293.13 K) was 0.000468 ± 2.3e-05 kPa and 0.000459 ± 2.3e-05 kPa and 0.000451 ± 2.3e-05 kPa. For the same compound, the “vapor or sublimation pressure” value (295.18 K) was 0.000579 ± 2.9e-05 kPa and 0.000571 ± 2.9e-05 kPa and 0.000558 ± 2.8e-05 kPa, the “vapor or sublimation pressure” value (297.15 K) was 0.000732 ± 3.7e-05 kPa and 0.000734 ± 3.7e-05 kPa and the “vapor or sublimation pressure” value (299.16 K) was 0.000948 ± 4.7e-05 kPa and 0.000927 ± 4.6e-05 kPa and 0.000925 ± 4.6e-05 kPa.
In the case of `c1ccc(-n2cccc2)cc1` [1-phenylpyrrole], the “vapor or sublimation pressure” value (271.14 K) was 0.000151 ± 8e-06 kPa and 0.000147 ± 7e-06 kPa and 0.000143 ± 7e-06 kPa, the “vapor or sublimation pressure” value (273.15 K) was 0.000191 ± 1e-05 kPa and 0.00019 ± 1e-05 kPa and 0.000185 ± 9e-06 kPa and the “vapor or sublimation pressure” value (275.17 K) was 0.000255 ± 1.3e-05 kPa and 0.000247 ± 1.2e-05 kPa and 0.000241 ± 1.2e-05 kPa. For the same compound, the “vapor or sublimation pressure” value (277.06 K) was 0.000336 ± 1.7e-05 kPa and 0.000311 ± 1.6e-05 kPa and 0.00033 ± 1.7e-05 kPa, the “vapor or sublimation pressure” value (279.15 K) was 0.000426 ± 2.1e-05 kPa and 0.000414 ± 2.1e-05 kPa and 0.000397 ± 2e-05 kPa and the “vapor or sublimation pressure” value (281.11 K) was 0.000537 ± 2.7e-05 kPa and 0.000525 ± 2.6e-05 kPa. The “vapor or sublimation pressure” value (283.19 K) was 0.000682 ± 3.4e-05 kPa and 0.000678 ± 3.4e-05 kPa and 0.000651 ± 3.3e-05 kPa, the “vapor or sublimation pressure” value (285.24 K) was 0.000905 ± 4.5e-05 kPa and 0.000887 ± 4.4e-05 kPa and the “vapor or sublimation pressure” value (287.13 K) was 0.001123 ± 0.00012 kPa and 0.001111 ± 0.00011 kPa and 0.00106 ± 0.00011 kPa.
